Key:
mice [1] = experiment: Elevated plus-maze; assay type: in vivo, mouse; conditions: spadin i.p. 10^−5 M or diazepam i.p. 0.5 mg/kg, 30 min before test, vs saline; n = 10
Excerpt: Elevated plus-maze. The apparatus consisted of two open and two enclosed arms of the same size (45x5 cm) with walls 15 cm high. The arms, constructed of black acrylic, radiate from a common central platform (5x5 cm) to form a plus sign. Open arms were arranged opposite to one another, as were closed arms. The maze was elevated to a height of 45 cm above floor level. Each mouse was placed in the central platform facing one of the open arms. The number of entries into the open and closed arms and the time spent on the open and closed arms were recorded during a 5 min test period. Time spent in the unprotected open arms as well as the number of entries in open arms in relation to the total of arm entries are used as experimental indices of anxiety.

mice [2] = experiment: Light/dark exploration test; assay type: in vivo, mouse; conditions: spadin i.p. 10^−5 M or diazepam i.p. 0.5 mg/kg, 30 min before test, vs saline; n = 10
Protocol: Light/dark exploration. The apparatus consisted of a cage (25X40X20 cm) divided into two compartments by a black partition containing a small opening that allows mouse to move from one compartment to the other. One compartment, comprising […] of the surface area, was made of white plastic and was brightly illuminated. The adjoining smaller compartment was black and dark. Mice were placed in the white compartment and allowed to move freely between the two chambers for 5 minutes. The number of transitions between the two compartments, time spent in the white chamber, and latency to the first transition were recorded. Mice tend to avoid the white compartment. Thus the measures of exploration in this area (time and entrances) were used as experimental indices of anxiety.

mice [3] = experiment: Staircase test; assay type: in vivo, mouse; conditions: spadin i.p. 10^−5 M or diazepam i.p. 0.5 mg/kg, 30 min before test, vs saline; n = 10
Protocol: Stair case test. The apparatus comprised an enclosed staircase consisted of five identical steps (2.5 cm in height X 11 cm in width X 7.5 cm in length), each made of black plastic. The height of the walls was constant (12.5 cm above the stairs) along the entire length of the staircase. Each mouse was placed individually on the floor of the staircase with its back to the staircase. A step was considered climbed only if the mouse placed all four paws on it. Rearing was recorded when the mouse rose on its hind legs either on the step or against the wall. The number of steps ascended and the number of rearings made in a 3-min period were recorded. Results were expressed as ratio of rearing/step numbers.

TREK-1 channel = experiment: Whole-cell patch-clamp, hippocampal CA3 pyramidal neurons in brain slices, wild-type mice; assay type: cell-based, mouse; conditions: no aa; spadin n = 8, fluoxetine n = 5; mean ± SEM; unpublished data
TREK-1 [4] = experiment: Whole-cell patch-clamp, cultured hippocampal pyramidal neurons; assay type: cell-based, mouse
Protocol: Cortical neurons were prepared from 14 old mouse embryos, whereas hippocampal neurons were prepared from newborn mice. Briefly, dissected brain areas were dissociated and neurons were plated on polylysine-treated 35 or 60 mm dishes and maintained in culture in Neurobasal medium supplemented with B27, Glutamax, and antibiotics for 2 to 3 wk before to be used for electrophysiological or biochemical experiments.
Supplementary file pbio.1000355.s004.tif: Figure S4 Effects of spadin on cultured pyramidal neurons from hippocampus. (A) Cultured pyramidal neuron from hippocampus, with on top, the patch-clamp pipette. Neurons were chosen according to their morphology. (B) Current recorded in response to ramps of potential obtained in the various conditions indicated (aa, arachidonic acid: 10 µM; Spadin: 1 µM; Fluoxetine: 20 µM). Neurons were recorded in the whole-cell configuration of the patch-clamp technique. In voltage-clamp, ramps of potential from −90 mV to 70 mV were applied every 10 s. The % variation of the current amplitude was always measured at −50 mV. The currents were recorded in response to such ramps in control conditions and in the presence of a cocktail of potassium blockers suitable to isolate the TREK currents (10 mM tetraethyl ammonium (TEA), 3 mM 4-aminopyridine (4-AP), 50 nM charybdotoxin, 10 µM glibenclamide, 100 nM apamin). […] The blocks were reversible. (C) Time course of spadin and fluoxetine effects. Applications are indicated by the horizontal bars. (2.03 MB TIF) Click here for additional data file.

mice [5] = experiment: Forced Swimming Test (FST), mice; assay type: in vivo, mouse
Protocol: Porsolt forced swim test (FST). Mice (Janvier, France) were placed individually in cylinders (height: 30 cm, diameter: 15 cm) filled with 12 cm deep water (temperature: 22 ±1°C) for 6 min. The total period of immobility was recorded during the last 4 min.

mice [6] = experiment: Tail Suspension Test (TST), mice; assay type: in vivo, mouse; conditions: 4-d fluoxetine 3 mg/kg, vs saline, p>0.05
Protocol: Tail suspension test (TST). Mice were suspended by the tail. […] The immobility time was recorded during a 6 min test session.

mice [7] = experiment: Novelty Suppressed Feeding test (NSF), mice; assay type: in vivo, mouse; conditions: 4 d; spadin i.v. 10^−6 M, fluoxetine i.p. 3 mg/kg; vs saline
Protocol: Novelty–suppressed feeding test (NSF). NSF paradigm is a conflict test that elicits competing motivations: the drive to eat and the fear of venturing into the center of a bright arena. Latency to begin eating is used as an index of anxiety- and depression- like behavior. After 4 day treatment (saline or spadin, i.v.) and 24 hours food-deprivation, mice were presented with a food pellet placed in the center of a brightly plastic box (50 x 50 x 20 cm). Latency to begin eating was measured as previously described.

mice [8] = conditions: mouse, in vivo, ip
Protocol: Supplementary file pbio.1000355.s006.tif: Figure S6 Mouse locomotion activity. To determine whether spadin induced a change in locomotor activity, mice (n = 8 per group) were injected with the saline solution or spadin (10^−5M in 100 µl bolus, i.p.) 30 min before starting the test session. Locomotor activity was monitored individually for 24 h using an infrared photobeam activity monitoring system (Imetronic, Pessac, France), which measured consecutive horizontal beam breaks. Testing was in transparent plastic cages (43×2 0×20 cm^3) with fresh bedding in a grid of 8 cm horizontal infrared beams. Locomotor activity was defined as breaking of consecutive photobeams. Mice were given 1 h habituation session before being treated with spadin or saline. Movements were recorded and totalized for each 5 min period during the first hour and then by 10 min time sections for the next 23 h. Six periods were pooled to obtain data for 1 h of time. Different movements were monitored: the coming-and-going between the back and the front of the cage, climbing, and other movements in the back or the front of the cage. Data are the mean value of 8 animals per condition, bars represent SEM. Mice were kept under standard laboratory conditions: 12∶12 light-dark cycle with free access to food and water during the experiment. […] (0.53 MB TIF) Click here for additional data file.

[9] = system: corticosterone (HPA axis); experiment: Stress-induced serum corticosterone levels; assay type: in vivo, mouse; conditions: fluoxetine i.p. 3 mg/kg, 30 min after 10 min tube restraint, vs saline; n = 10
Protocol: Mice were individually housed for at least 12 h before blood sample collection. Serum samples, collected in the morning, were obtained by retroorbital puncture before and 30 min after the end of a 10 min tube restraint. Levels of corticosterone were measured by radioimmunoassay using a commercially available kit (MP Biomedicals).

[10] = system: BrdU-positive cells in mouse hippocampus; experiment: Hippocampal neurogenesis (BrdU labeling); assay type: in vivo
Protocol: Twenty-four hours after the injection of BrdU (120 mg per kg of body weight in a 300 µl bolus), mice were euthanized and transcardially perfused with 4% cold paraformaldehyde. Serial sections of the brains were cut (40 µm) throughout the entire hippocampus on a vibratome (Leica). Every sixth section throughout the hippocampus was processed for BrdU or DCX immunohistochemistry, as previously described. For each immunodetection, slides were first incubated overnight at 4°C with a mouse monoclonal anti-BrdU antibody (1∶200; Becton-Dickinson) or a goat anti-DCX (1∶400; Santa Cruz Laboratories). For chromogenic immunodetection, sections were then incubated for 1 h in biotin-conjugated species-specific secondary antibodies (1∶100; Vector Laboratories) followed by a peroxidase-avidin complex solution according to the manufacturer's protocol. The peroxidase activity of immune complexes was visualized with DAB staining using the VectaStain ABC kit (Vector Laboratories). […] All BrdU-labeled cells in the granular cell layer and SGZ were counted in each section (n = 10 and 5 mice per group) at 400× and 1,000× magnification under a light microscope (Olympus) by an experimenter blinded to the study code. […]

C13NJ cells = experiment: C13NJ wound-healing (cell migration) assay; assay type: cell-based; conditions: 10 nM NT in serum free medium; without spadin, or (spadin line) with 1 µM spadin; unstimulated 4%±1%
Excerpt: A cell-free zone was created within a semi-confluent monolayer of microglial culture by scratching cells off with a pipette tip. We analyzed by time-lapse microscopy how cells repopulated the cell-free zone, as already described. Supplementary file pbio.1000355.s001.tif: Figure S1 […] wound-healing assay. A cell-free zone was created within a semi-confluent monolayer with a pipette tip. We analyzed by time-lapse microscopy how cells repopulated the cell-free zone. The 100% of migrating cells was calculated by stimulation of cell migration with 10% of Fetal Calf Serum (FCS). (0.13 MB TIF) Click here for additional data file.

TREK-1 [11] = biological target: T1, TREK-1 (Mus musculus, UniProt P97438); experiment: Competition binding, 125I-spadin, TREK-1 transfected COS-7 cell homogenates; design: expressed in transfected cells; host or cells: COS-7 cells, DEAE-dextran transfection; conditions: competition, 10^−10 to 10^−5M
T1 sequence (P97438 1-426): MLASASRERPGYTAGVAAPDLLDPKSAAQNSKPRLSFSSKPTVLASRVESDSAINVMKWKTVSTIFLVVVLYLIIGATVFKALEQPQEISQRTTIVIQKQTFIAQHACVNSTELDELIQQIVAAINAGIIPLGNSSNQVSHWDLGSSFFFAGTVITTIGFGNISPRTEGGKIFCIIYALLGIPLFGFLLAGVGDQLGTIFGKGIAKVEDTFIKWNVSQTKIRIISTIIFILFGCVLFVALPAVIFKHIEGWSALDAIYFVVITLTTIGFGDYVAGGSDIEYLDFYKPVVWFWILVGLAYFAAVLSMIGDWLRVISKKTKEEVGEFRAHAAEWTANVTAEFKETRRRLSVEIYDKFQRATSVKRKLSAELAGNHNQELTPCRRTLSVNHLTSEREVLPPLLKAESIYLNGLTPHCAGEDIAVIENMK
Protocol: For competition experiments, homogenates from TREK-1 transfected COS-7 or C13NJ cells were incubated with 0.2 nM ^125I-spadin or ^125I-NT (200,000 cpm in 250 µl) iodinated and purified as previously described. Incubations were performed in 50 mM Tris-HCl, pH 7.4 containing 0.1% BSA in the presence of increasing concentrations of non-radioactive spadin or NT (10^−10 to 10^−5M). Incubations were terminated by addition of 2 ml of ice-cold binding buffer followed by filtration through cellulose acetate filters (Sartorius, Göttingen, Germany) and washing twice with 2 ml of ice-cold buffer. Radioactivity on filters was counted with a gamma-counter.

Molecule: CN1C(=O)CN=C(c2ccccc2)c2cc(Cl)ccc21 [diazepam]
- time spent in the open arms (mice [1]): significantly reduced the time spent into the aversive open arms
- light/dark transitions (mice [2]): significantly induced an increase in the number of light/dark transitions
- rearing/step numbers ratio (mice [3]): decrease of the rearing/step numbers ratio

Molecule: CNCCC(Oc1ccc(C(F)(F)F)cc1)c1ccccc1 (stereo not shown) [fluoxetine]
- inhibition of current recorded in presence of potassium blockers, peptide/drug alone (TREK-1 channel): 13.0%±3.8%
- block of arachidonic acid-evoked current (TREK-1 [4]; 20 µM fluoxetine, 10 µM aa, at −50 mV): fully blocked
- reversibility of block (TREK-1 [4]; spadin 1 µM and fluoxetine 20 µM): reversible
- effect of subchronic treatment (mice [5]; 4-d fluoxetine 3 mg/kg, FST, vs saline, p>0.05): no effect
- reduction of time of immobility, chronic treatment (mice [5]; 15 d, i.v. once a day, spadin 10^−6 M, fluoxetine 1 mg/kg, vs saline p<0.001, n = 8): around 30%
- effect of subchronic treatment (mice [6]): no effect
- latency to feed (mice [7]): no effect
- locomotor activity (mice [8]): Neither spadin nor fluoxetine had any effect on mouse locomotion
- reduction of stress-induced increase in corticosterone levels [9]: 59.1%
- number of BrdU-positive cells ([10]; 4-d fluoxetine): no effect on neurogenesis
- number of BrdU-positive cells ([10]; 15 d treatment, spadin 10^−5 M or fluoxetine, n = 5): significant increase in the number of BrdU-positive cells

Molecule: neurotensin [NT]
- number of cells that migrated, % of migrating cells in presence of 10% FCS (C13NJ cells): 35.1%±2.3%
- displacement of 125I-spadin binding (TREK-1 [11]): unable to displace the binding of ^125I-spadin

From publication PMC2854129, “Spadin, a Sortilin-Derived Peptide, Targeting Rodent TREK-1 Channels: A New Concept in the Antidepressant Drug Design” (PLoS Biology, 2010)
